≈ marks a conversion by molar mass, not a printed value. Like-named read-outs stand apart in the source and are kept apart here.

The source of these data is patent publication US10464922B2, “Metalloenzyme inhibitor compounds” (NQP 1598 LTD., priority 2015, dated 2019).

The test system of one experiment is C. albicans (ATCC 90028). The experiment can be described thus: Minimum inhibitory concentration, in vitro broth microdilution assay (CLSI M27-A2). The conditions noted are these: for MIC: Candida albicans, ATCC90028, 48 h, read-out: Candida albicans MIC. The format is cell-based, Candida albicans. The method, boiled down: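 Inoculum of 1×10^3 to 1×10^4 CFU/mL in RPMI-1640+MOPS, exposed to 11 two-fold serial compound concentrations at 2 percent final DMSO, per CLSI M27-A2. After 2 days at 36° C, wells scored visually for growth to give MIC; tested in duplicate.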

The subject of another experiment is A. fumigatus. Kind of experiment: A. fumigatus MIC at 100% growth inhibition (CLSI M38-A2). In kind it is cell-based, Aspergillus fumigatus. The note with it: for MIC: Aspergillus fumigatus, read-out: Aspergillus fumigatus MIC. The protocol: A. fumigatus MICs were determined at 100% growth inhibition following CLSI guidelines at a concentration range of 8-0.0078 μg/mL (CLSI M38-A2).

Setting [1] is: ATCC 90028, about 50% growth reduction, 2 days at 36° C., range tested 8-0.0078 μg/mL, values given as ranges.
Where [2] appears, read: 100% growth inhibition, range tested 8-0.0078 μg/mL, values given as ranges.

On to `OC(CC(F)(F)F)c1ccc(N2CCN(c3ccc(-c4ccc(C(F)(F)[C@](O)(Cn5cnnn5)c5ccccc5F)nc4)cc3)CC2)cn1` (single isomer, unassigned; (-)) [122(−)], for which the “Candida albicans MIC” value in the experiment with C. albicans (ATCC 90028) (setting [1]) was 1.0 to 8.0 µg/mL. In addition, the “Aspergillus fumigatus MIC” value with A. fumigatus (setting [2]) was more than 8 µg/mL.
In the case of `CC(C)CC(O)c1ccc(N2CCN(c3ccc(-c4ccc(C(F)(F)[C@](O)(Cn5cnnn5)c5ccc(F)cc5F)nc4)cc3)CC2)cn1` (stereo partly drawn) [Example 49, 1-(5-(4-(4-(6-((R)-2-(2,4-difluorophenyl)-1,1-difluoro-2-hydroxy-3-(1H-tetrazol-1-yl)propyl)pyridin-3-yl)phenyl)piperazin-1-yl)pyridin-2-yl)-3-methylbutan-1-ol], the MIC was 0.01 to 0.1 µg/mL (≈ 0.0148 to 0.148 µM) in the experiment on C. albicans (ATCC 90028) (setting [1]) and 0.062 to 0.25 µg/mL (≈ 0.0916 to 0.369 µM) in the experiment with A. fumigatus (setting [2]).
Taken in the same sequence, the figures for `Cn1ncn(-c2ccc(N3CCN(c4ccc(-c5ccc(C(F)(F)[C@](O)(Cn6cnnn6)c6ccc(F)cc6F)nc5)cc4)CC3)cc2)c1=O` [Example 53, (R)-4-(4-(4-(4-(6-(2-(2,4-difluorophenyl)-1,1-difluoro-2-hydroxy-3-(1H-tetrazol-1-yl)propyl)pyridin-3-yl)phenyl)piperazin-1-yl)phenyl)-2-methyl-2,4-dihydro-3H-1,2,4-triazol-3-one] were 0.01 to 0.1 µg/mL (≈ 0.0146 to 0.146 µM) and 0.062 to 0.25 µg/mL (≈ 0.0903 to 0.364 µM).
With `N#Cc1ccc(N2CCN(c3ccc(-c4ccc(C(F)(F)[C@](O)(Cn5cnnn5)c5ccc(F)cc5F)nc4)cc3)CC2=O)cc1` [Example 25, (R)-4-(4-(4-(6-(2-(2,4-difluorophenyl)-1,1-difluoro-2-hydroxy-3-(1H-tetrazol-1-yl)propyl)pyridin-3-yl)phenyl)-2-oxopiperazin-1-yl) benzonitrile], the minimum inhibitory concentration (MIC) with C. albicans (ATCC 90028) (setting [1]) was 0.0078 to 0.01 µg/mL (≈ 0.0124 to 0.0159 µM); in the experiment with A. fumigatus (setting [2]), 0.25 to 1 µg/mL (≈ 0.398 to 1.59 µM).
Taken in the same sequence, the figures for `N#Cc1ccc(N2CCN(c3ccc(-c4ccc(C(F)(F)[C@](O)(Cn5cnnn5)c5ccc(F)cc5F)nc4)cc3)CC2)cc1` [Example 1, (R)-4-(4-(4-(6-(2-(2,4-difluorophenyl)-1,1-difluoro-2-hydroxy-3-(1H-tetrazol-1-yl)propyl)pyridin-3-yl)phenyl)piperazin-1-yl) benzonitrile] were 0.0078 to 0.01 µg/mL (≈ 0.0127 to 0.0163 µM) and 0.25 to 1 µg/mL (≈ 0.407 to 1.63 µM).
The matching figures for `N#Cc1ccc(N2CCN(c3ccc(-c4ccc(C(F)(F)[C@](O)(Cn5cnnn5)c5ccc(F)cc5F)nc4)cc3)CC2)cc1F` [Example 8, (R)-4-(4-(4-(6-(2-(2,4-difluorophenyl)-1,1-difluoro-2-hydroxy-3-(1H-tetrazol-1-yl)propyl)pyridin-3-yl)phenyl)piperazin-1-yl)-2-fluorobenzonitrile]: 0.0078 to 0.01 µg/mL (≈ 0.0123 to 0.0158 µM) and 0.25 to 1 µg/mL (≈ 0.395 to 1.58 µM).
As for `OC(c1ccc(N2CCN(c3ccc(-c4ccc(C(F)(F)[C@](O)(Cn5cnnn5)c5ccc(F)cc5F)nc4)cc3)CC2)cn1)C(F)(F)F` (single isomer, unassigned) [Example 6-Fr-I], the minimal inhibitory concentration (MIC) lay in the range of 0.01 to 0.1 µg/mL (≈ 0.0145 to 0.145 µM) in the experiment on C. albicans (ATCC 90028) (setting [1]) and 0.25 to 1 µg/mL (≈ 0.363 to 1.45 µM) with A. fumigatus (setting [2]).
Take `CN(C)Cc1ccc(N2CCN(c3ccc(-c4ccc(C(F)(F)[C@](O)(Cn5cnnn5)c5ccc(F)cc5F)nc4)cc3)CC2)cn1` [Example 33, (R)-2-(2,4-difluorophenyl)-1-(5-(4-(4-(6-((dimethylamino)methyl)pyridin-3-yl)piperazin-1-yl)phenyl)pyridin-2-yl)-1,1-difluoro-3-(1H-tetrazol-1-yl) propan-2-ol]: the MIC in the experiment with C. albicans (ATCC 90028) (setting [1]) lay in the range of 0.01 to 0.1 µg/mL (≈ 0.0154 to 0.154 µM); with A. fumigatus (setting [2]) it was 1 to 4 µg/mL (≈ 1.54 to 6.18 µM).
`OC(CC(F)(F)F)c1ccc(N2CCN(c3ccc(-c4ccc(C(F)(F)[C@](O)(Cn5cncn5)c5ccc(F)cc5F)nc4)cc3)CC2)cn1` (single isomer, unassigned; (+)) [120(+)]: in the experiment on C. albicans (ATCC 90028) (setting [1]), the “Candida albicans MIC” value was not above 0.0078 to 0.010 µg/mL. Further, in the experiment with A. fumigatus (setting [2]), the “Aspergillus fumigatus MIC” value lay within 0.062 to 0.25 µg/mL.
For `N#Cc1ccc(C2CCN(c3ccc(-c4ccc(C(F)(F)[C@](O)(Cn5cnnn5)c5ccc(F)cc5F)nc4)cc3)CC2)cc1` [Example 26, (R)-4-(1-(4-(6-(2-(2,4-difluorophenyl)-1,1-difluoro-2-hydroxy-3-(1H-tetrazol-1-yl)propyl)pyridin-3-yl)phenyl)piperidin-4-yl) benzonitrile], the minimum inhibitory concentration (MIC) lay within 0.0078 to 0.01 µg/mL (≈ 0.0127 to 0.0163 µM) in the experiment with C. albicans (ATCC 90028) (setting [1]) and 0.25 to 1 µg/mL (≈ 0.407 to 1.63 µM) in the experiment on A. fumigatus (setting [2]).
Consider `N#Cc1ccc(N2CCN(Cc3ccc(-c4ccc(C(F)(F)[C@](O)(Cn5cnnn5)c5ccc(F)cc5F)nc4)cc3)C(=O)C2)cc1` [Example 27, (R)-4-(4-(4-(6-(2-(2,4-difluorophenyl)-1,1-difluoro-2-hydroxy-3-(1H-tetrazol-1-yl)propyl)pyridin-3-yl)benzyl)-3-oxopiperazin-1-yl) benzonitrile], for which the MIC in the experiment on C. albicans (ATCC 90028) (setting [1]) is 0.01 to 0.1 µg/mL (≈ 0.0156 to 0.156 µM); in the experiment with A. fumigatus (setting [2]), more than 8 µg/mL.
For the compound `CCC(C)C(O)c1ccc(N2CCN(c3ccc(-c4ccc(C(F)(F)[C@](O)(Cn5cnnn5)c5ccc(F)cc5F)nc4)cc3)CC2)cc1` (stereo partly drawn) [Example 59, 1-(4-(4-(4-(6-((R)-2-(2,4-difluorophenyl)-1,1-difluoro-2-hydroxy-3-(1H-tetrazol-1-yl)propyl)pyridin-3-yl)phenyl)piperazin-1-yl)phenyl)-2-methylbutan-1-ol], the MIC is 0.0078 to 0.01 µg/mL (≈ 0.0115 to 0.0148 µM) in the experiment on C. albicans (ATCC 90028) (setting [1]) and 0.25 to 1 µg/mL (≈ 0.37 to 1.48 µM) in the experiment with A. fumigatus (setting [2]).
The matching figures for `N#Cc1ccc2nc(N3CCN(c4ccc(-c5ccc(C(F)(F)[C@](O)(Cn6cnnn6)c6ccc(F)cc6F)nc5)cc4)CC3)[nH]c2c1` [Example 74, (R)-2-(4-(4-(6-(2-(2,4-difluorophenyl)-1,1-difluoro-2-hydroxy-3-(1H-tetrazol-1-yl)propyl)pyridin-3-yl)phenyl)piperazin-1-yl)-1H-benzo [d] imidazole-6-carbonitrile]: 0.0078 to 0.01 µg/mL (≈ 0.0119 to 0.0153 µM) and more than 8 µg/mL.
For the compound `CC(C)(C)C(O)c1ccc(N2CCN(c3ccc(-c4ccc(C(F)(F)[C@](O)(Cn5cnnn5)c5ccc(F)cc5F)nc4)cc3)CC2)cc1` (stereo partly drawn) [Example 43, 1-(4-(4-(4-(6-((R)-2-(2,4-difluorophenyl)-1,1-difluoro-2-hydroxy-3-(1H-tetrazol-1-yl)propyl)pyridin-3-yl)phenyl)piperazin-1-yl)phenyl)-2,2-dimethylpropan-1-ol], the minimal inhibitory concentration (MIC) in the experiment with C. albicans (ATCC 90028) (setting [1]) fell in the range of 0.0078 to 0.01 µg/mL (≈ 0.0115 to 0.0148 µM); with A. fumigatus (setting [2]), 0.25 to 1 µg/mL (≈ 0.37 to 1.48 µM).
Taken in the same sequence, the figures for `CCC(C(=O)Nc1ccc(N2CCN(c3ccc(-c4ccc(C(F)(F)[C@](O)(Cn5cnnn5)c5ccc(F)cc5F)nc4)cc3)CC2)cc1)C(C)O` (stereo partly drawn) [Example 89, N-(4-(4-(4-(6-((R)-2-(2,4-difluorophenyl)-1,1-difluoro-2-hydroxy-3-(1H-tetrazol-1-yl)propyl)pyridin-3-yl)phenyl)piperazin-1-yl)phenyl)-2-ethyl-3-hydroxybutanamide] were 0.01 to 0.1 µg/mL (≈ 0.0139 to 0.139 µM) and 0.25 to 1 µg/mL (≈ 0.348 to 1.39 µM).
Taken in the same sequence, the figures for `CC(C)(C)Cc1nc2ccc(N3CCN(c4ccc(-c5ccc(C(F)(F)[C@](O)(Cn6cnnn6)c6ccc(F)cc6F)nc5)cc4)CC3)cc2[nH]1` [Example 90, (R)-2-(2,4-difluorophenyl)-1,1-difluoro-1-(5-(4-(4-(2-neopentyl-1H-benzo [d]imidazol-6-yl)piperazin-1-yl)phenyl)pyridin-2-yl)-3-(1H-tetrazol-1-yl) propan-2-ol] were 0.0078 to 0.01 µg/mL (≈ 0.0111 to 0.0143 µM) and more than 8 µg/mL.
For the compound `CC[C@@H]([C@H](C)O)n1ncn(-c2ccc(N3CCN(c4ccc(-c5ccc(C(F)(F)[C@](O)(Cn6cnnn6)c6ccccc6F)nc5)cc4)CC3)cn2)c1=O` [102(+), 4-(5-(4-(4-(6-((R)-1,1-difluoro-2-(2-fluorophenyl)-2-hydroxy-3-(1H-tetrazol-1-yl)propyl)pyridin-3-yl)phenyl)piperazin-1-yl)pyridin-2-yl)-2-((2S,3S)-2-hydroxypentan-3-yl)-2,4-dihydro-3H-1,2,4-triazol-3-one], the “Candida albicans MIC” value with C. albicans (ATCC 90028) (setting [1]) is not above 0.0078 to 0.010 µg/mL. In addition, the “Aspergillus fumigatus MIC” value in the experiment with A. fumigatus (setting [2]) lay in the range of 0.25 to 1.0 µg/mL.
In the case of `CCC(O)c1ccc(N2CCN(c3ccc(-c4ccc(C(F)(F)[C@](O)(Cn5cnnn5)c5ccc(F)cc5F)nc4)cc3)CC2)cc1` (some centres unmarked) [Example 39], the MIC in the experiment on C. albicans (ATCC 90028) (setting [1]) is 0.01 to 0.1 µg/mL (≈ 0.0154 to 0.154 µM); in the experiment on A. fumigatus (setting [2]), 0.25 to 1 µg/mL (≈ 0.386 to 1.54 µM).
Consider `CC(C)C(O)c1ccc(N2CCN(c3ccc(-c4ccc(C(F)(F)[C@](O)(Cn5cnnn5)c5ccc(F)cc5F)nc4)cc3)CC2)cn1` (stereo partly drawn) [Example 45, 1-(5-(4-(4-(6-((R)-2-(2,4-difluorophenyl)-1,1-difluoro-2-hydroxy-3-(1H-tetrazol-1-yl)propyl)pyridin-3-yl)phenyl)piperazin-1-yl)pyridin-2-yl)-2-methylpropan-1-ol], for which the figures for the MIC in the experiment on C. albicans (ATCC 90028) (setting [1]) and in the experiment on A. fumigatus (setting [2]) were 0.0078 to 0.01 µg/mL (≈ 0.0118 to 0.0151 µM) and 0.25 to 1 µg/mL (≈ 0.377 to 1.51 µM), respectively.
The matching figures for `OC(c1cc(N2CCN(c3ccc(-c4ccc(C(F)(F)[C@](O)(Cn5cnnn5)c5ccc(F)cc5F)nc4)cc3)CC2)ccn1)C(F)(F)F` (stereo partly drawn) [Example 104, (2R)-2-(2,4-difluorophenyl)-1,1-difluoro-3-(1H-tetrazol-1-yl)-1-(5-(4-(4-(2-(2,2,2-trifluoro-1-hydroxyethyl)pyridin-4-yl)piperazin-1-yl)phenyl)pyridin-2-yl)propan-2-ol]: 0.0078 to 0.01 µg/mL (≈ 0.0113 to 0.0145 µM) and 0.25 to 1 µg/mL (≈ 0.363 to 1.45 µM).
Regarding `NC(CC(F)(F)F)C(=O)Nc1ccc(N2CCN(c3ccc(-c4ccc(C(F)(F)[C@](O)(Cn5cnnn5)c5ccc(F)cc5F)nc4)cc3)CC2)cc1` (stereo partly drawn) [Example 88, 2-amino-N-(4-(4-(4-(6-((R)-2-(2,4-difluorophenyl)-1,1-difluoro-2-hydroxy-3-(1H-tetrazol-1-yl)propyl)pyridin-3-yl)phenyl)piperazin-1-yl)phenyl)-4,4,4-trifluorobutanamide], the minimal inhibitory concentration (MIC) was 0.01 to 0.1 µg/mL (≈ 0.0134 to 0.134 µM) in the experiment on C. albicans (ATCC 90028) and more than 8 µg/mL in the experiment on A. fumigatus.
For the compound `OC(CC(F)(F)F)c1ccc(N2CCN(c3ccc(-c4ccc(C(F)(F)[C@](O)(Cn5cnnn5)c5ccccc5F)nc4)cc3)CC2)cn1` (single isomer, unassigned; (+)) [122(+)], the “Candida albicans MIC” value in the experiment with C. albicans (ATCC 90028) (setting [1]) was not above 0.0078 to 0.010 µg/mL. Also, in the experiment with A. fumigatus (setting [2]), the “Aspergillus fumigatus MIC” value was 0.25 to 1.0 µg/mL.
